Assay results from patent publication EP4663635A1, “CRYSTALLINE FORM OF SULFONAMIDE DERIVATIVE AND PREPARATION METHOD THEREFOR” (Jiangsu Hengrui Pharmaceuticals Co., Ltd., priority 2023, dated 2024).

Legend:
KAT6A = target: T1, KAT6A (Homo sapiens, UniProt Q92794); assay: Enzymatic activity assay KAT6 (AlphaScreen method); format: biochemical; conditions: KAT enzyme 1.25 nM, Ac-CoA 1000 nM, H3 55 nM
T1 construct: purchased Chempartner (customized)
Description: • 1. KAT6A (customized by Chempartner) • 2. Ovalbumin (Sigma-Aldrich, A5378-5G) • 3. 2 M Tris-HCl solution, pH 7.8, sterile (Sangon, B548140-0500) • 4. 5 M NaCl solution (Sangon, B548121-0100) • 5. EDTA (0.5 M), pH 8.0, RNase-free (Thermofisher, AM9260G) • 6. Tween-20 (Sangon, A100777-0500) • 7. DTT, 1 M (Invitrogen, P2325) • 8. Acetyl coenzyme A (Ac-CoA, CAYMAN, Cat. No. 16160) • 9. Recombinant histone H3.1 biotinylated (human) (Active Motif 31696) • 10. 384-well plate, light gray (PerkinElmer, Cat. No. 6005350) • 11. Anacardic acid (MCE, Cat. No. HY-N2020) • 12. AlphaScreen streptavidin donor beads, 5 mg (PerkinElmer, 6760002) • 13. AlphaScreen protein A acceptor beads, 5 mg (PerkinElmer, 6760137M) • 14. Acetylated-lysine antibody #9441 (CST 9441S) • 15. PHERA star microplate reader (BMG labtech)
• a. 1× assay buffer: 100 mM Tris-HCl, pH 7.8; 15 mM NaCl; 1 mM EDTA; 0.01% tween-20; 1 mM DTT; 0.01% m/v ovalbumin. • b. KAT enzyme solution: 1.25 nM (final concentration), prepared in 1× assay buffer. • c. […]
The prepared enzyme solution was added to a 384-well plate at 3 µL/well, and 3 µL of 1× assay buffer was added to each well in columns 23 and 24 (Min). […] Plate reading was performed on the microplate reader, and AlphaScreen counts were recorded. Plotting was performed using the Graphpad software, and the IC50 values of the compounds were calculated. […]

ZR-75-1 = assay: Anti-ZR-75-1 proliferation assay (CellTiter-Glo); format: cell-based; conditions: CTG assay on day 14
Description: • 1. ZR-75-1 (ATCC CRL1500) • 2. 1640 medium (Gibco, 22400-089) • 3. 0.25% trypsin-EDTA (1×) (Gibco, 25200-072) • 4. Penicillin-streptomycin (Gibco, 15140-122) • 5. DPBS (1×) (Gibco, 14190-144) • 6. FBS (Gibco, 10091148) • 7. Assay plate, 96-well, black with clear bottom (Corning, 3603) • 8. 96-well non-treated round-bottom plate (JET BIOFIL, TCP-002-096) • 9. CellTiter-Glo buffer (Promega, G756B) • 10. CellTiter-Glo substrate (Promega, G755B) • 11. Automatic cell counter (Countstar, IC1000) • 12. Thermostatic incubator (Thermo, I160) • 13. PHERAstar FS (BMG labtech, PHERAstar FS)
• a. The state of cells was observed under a microscope to make sure that the cell confluence was about 90%. • b. The cell supernatant was discarded. The cells were rinsed with DPBS once, and the DPBS was removed. The cells were digested with a proper amount of trypsin and left to stand at 37 °C for 5 min. • c. The digestion was stopped with an equal volume of 1640 medium containing 10% FBS, and the cell suspension was collected and centrifuged at 300 g for 3 min. The cells were suspended in a proper amount of fresh medium. • d. The resulting cell suspension was collected and cell counting was performed. • e. The cell suspension was diluted to 5 × 10^4 cells/mL, 50 µL/well with 1640 medium containing 10% FBS. Each well contained 2500 ZR-75-1 cells. • f. […]

[1] = Hygroscopicity study of crystal forms (DVS); format: physicochemical; conditions: for 0.0%RH-80.0%RH: DVS mass change, 25 °C; for Crystal form: crystal form after DVS test
Description: DVS refers to dynamic vapor sorption: The analysis was performed using SMS DVS Advantage; at 25 °C, the humidity was changed as follows: 50%-95%-0%-95%-50%, in steps of 10% (5% for the last step) (specific humidity ranges are shown in corresponding patterns, and those listed here were used in most cases); the criterion was dm/dt being not greater than 0.002%.
Surface Measurement Systems intrinsic DVS was adopted. At 25 °C, the crystal forms were tested in a humidity range of 0%-95%, with increments of 10%. The criterion was that each gradient mass change dM/dT is less than 0.002%, TMAX 360 min, two cycles.

[2] = Stability influencing factor study of crystal forms; format: physicochemical
Description: Free-state samples were spread out, left to stand in open flasks, and subjected to 30-day stability tests in light exposure (4500 Lux), high temperature (40 °C and 60 °C), and high humidity (RH 75% and RH 92.5%) conditions.

[3] = Long-term/accelerated stability of crystal forms; format: physicochemical
Description: Free-state samples were sealed in aluminum foil bags and left to stand in 25 °C/60% RH and 40 °C/75% RH conditions to test their stability.

T1 sequence (Q92794 whole entry, species assumed): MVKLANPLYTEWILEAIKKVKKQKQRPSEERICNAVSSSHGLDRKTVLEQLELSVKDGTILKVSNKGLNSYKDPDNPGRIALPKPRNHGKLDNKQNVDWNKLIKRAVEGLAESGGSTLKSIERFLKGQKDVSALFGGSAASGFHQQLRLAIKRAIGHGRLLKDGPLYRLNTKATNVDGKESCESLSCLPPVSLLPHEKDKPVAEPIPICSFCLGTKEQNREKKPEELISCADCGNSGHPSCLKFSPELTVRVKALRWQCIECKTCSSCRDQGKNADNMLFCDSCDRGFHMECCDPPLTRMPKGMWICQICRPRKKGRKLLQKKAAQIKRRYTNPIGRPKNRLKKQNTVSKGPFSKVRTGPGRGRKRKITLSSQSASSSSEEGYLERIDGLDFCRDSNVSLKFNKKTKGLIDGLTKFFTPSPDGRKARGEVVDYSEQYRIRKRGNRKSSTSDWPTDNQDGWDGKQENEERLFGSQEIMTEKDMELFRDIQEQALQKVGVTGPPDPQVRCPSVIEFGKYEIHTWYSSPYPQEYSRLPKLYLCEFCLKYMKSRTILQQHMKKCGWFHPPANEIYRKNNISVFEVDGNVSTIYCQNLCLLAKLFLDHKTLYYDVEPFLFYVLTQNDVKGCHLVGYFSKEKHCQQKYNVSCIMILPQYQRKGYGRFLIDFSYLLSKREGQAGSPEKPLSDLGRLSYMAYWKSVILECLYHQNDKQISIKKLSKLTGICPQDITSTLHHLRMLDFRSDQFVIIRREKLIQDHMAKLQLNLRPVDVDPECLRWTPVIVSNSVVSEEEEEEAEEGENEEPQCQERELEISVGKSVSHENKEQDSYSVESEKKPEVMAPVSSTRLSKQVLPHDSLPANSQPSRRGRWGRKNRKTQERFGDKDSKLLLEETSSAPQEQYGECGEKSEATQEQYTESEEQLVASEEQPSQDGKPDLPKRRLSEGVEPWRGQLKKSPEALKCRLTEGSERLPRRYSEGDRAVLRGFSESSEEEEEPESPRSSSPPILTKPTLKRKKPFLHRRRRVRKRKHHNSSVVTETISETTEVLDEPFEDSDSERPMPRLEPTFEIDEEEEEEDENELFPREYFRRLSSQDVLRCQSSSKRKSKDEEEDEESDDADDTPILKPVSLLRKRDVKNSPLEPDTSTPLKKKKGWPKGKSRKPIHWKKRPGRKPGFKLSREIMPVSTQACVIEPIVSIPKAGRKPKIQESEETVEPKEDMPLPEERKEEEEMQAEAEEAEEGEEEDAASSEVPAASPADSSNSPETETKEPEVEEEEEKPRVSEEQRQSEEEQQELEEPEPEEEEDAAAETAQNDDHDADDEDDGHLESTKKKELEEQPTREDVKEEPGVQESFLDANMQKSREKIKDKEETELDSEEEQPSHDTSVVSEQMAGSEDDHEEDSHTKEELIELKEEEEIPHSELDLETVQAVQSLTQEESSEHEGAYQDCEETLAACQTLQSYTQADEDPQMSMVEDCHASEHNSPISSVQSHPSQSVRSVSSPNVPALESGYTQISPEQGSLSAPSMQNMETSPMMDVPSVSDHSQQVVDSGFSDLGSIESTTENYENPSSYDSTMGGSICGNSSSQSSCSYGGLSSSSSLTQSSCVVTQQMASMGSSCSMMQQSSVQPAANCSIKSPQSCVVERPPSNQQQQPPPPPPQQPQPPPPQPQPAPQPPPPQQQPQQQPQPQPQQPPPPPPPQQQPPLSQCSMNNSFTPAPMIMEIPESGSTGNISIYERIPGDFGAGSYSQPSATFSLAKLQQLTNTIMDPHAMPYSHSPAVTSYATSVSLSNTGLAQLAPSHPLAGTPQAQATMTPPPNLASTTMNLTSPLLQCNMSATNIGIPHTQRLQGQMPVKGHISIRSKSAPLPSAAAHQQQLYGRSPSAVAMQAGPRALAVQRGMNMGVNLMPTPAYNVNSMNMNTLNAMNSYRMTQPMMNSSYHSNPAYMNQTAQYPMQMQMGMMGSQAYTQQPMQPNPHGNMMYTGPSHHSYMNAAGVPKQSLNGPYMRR

COc1cccc(OC)c1S(=O)(=O)Nc1noc2cc(Cn3cccn3)c3c(c12)OCCC3 [Compound of formula 1, N-(5-((1H-pyrazol-1-yl)methyl)-3,4-dihydro-2H-chromeno[8,7-d]isoxazol-9-yl)-2,6-dimethoxybenzenesulfonamide]
IC50 (KAT6A): 0.3 nM
Maximum inhibition rate/Imax% (ZR-75-1): 96%
IC50 (ZR-75-1; Homo sapiens, ZR-75-1, 336 h): 0.4 nM

COc1cccc(OC)c1S(=O)(=O)Nc1noc2cc(Cn3cccn3)c3c(c12)OCCC3 [Crystal form A, N-(5-((1H-pyrazol-1-yl)methyl)-3,4-dihydro-2H-chromeno[8,7-d]isoxazol-9-yl)-2,6-dimethoxybenzenesulfonamide]
0.0%RH-80.0%RH [1]: 0.10%
Crystal form [1]: No change
Purity% ([2]; 40 °C, 5 days): 99.1%
Purity% ([2]; 40 °C, 10 days): 99.1%
Purity% ([2]; 40 °C, 30 days): 99.1%
Purity% ([2]; 60 °C, 7 days): 99.1%
Purity% ([2]; 60 °C, 14 days): 99.1%
Purity% ([2]; 60 °C, 30 days): 99.1%
Purity% ([2]; 75% RH, 7 days): 99.1%
Purity% ([2]; 75% RH, 14 days): 99.1%
Purity% ([2]; 75% RH, 30 days): 99.1%
Purity% ([2]; 92.5% RH, 7 days): 99.1%
Purity% ([2]; 92.5% RH, 14 days): 99.1%
Purity% ([2]; 92.5% RH, 30 days): 99.1%
Purity% ([2]; Initial, 0 days): 99.1%
Purity% ([2]; Light exposure (4500 Lux), 7 days): 99.0%
Purity% ([2]; Light exposure (4500 Lux), 14 days): 98.9%
Purity% ([2]; Light exposure (4500 Lux), 30 days): 98.9%
Crystal form ([3]; 25 °C/60%RH): No change
Purity% ([3]; 25 °C/60%RH, 1 month): 99.1%
Purity% ([3]; 25 °C/60%RH, 2 months): 99.1%
Purity% ([3]; 25 °C/60%RH, 3 months): 99.1%
Purity% ([3]; 25 °C/60%RH, 9 months): 99.1%
Purity% ([3]; 25 °C/60%RH, 14 days): 99.1%
Purity% ([3]; 25 °C/60%RH, Initial): 99.1%
Crystal form ([3]; 40 °C/75%RH): No change
Purity% ([3]; 40 °C/75%RH, 1 month): 99.1%
Purity% ([3]; 40 °C/75%RH, 2 months): 99.1%
Purity% ([3]; 40 °C/75%RH, 3 months): 99.1%
Purity% ([3]; 40 °C/75%RH, 9 months): 99.1%
Purity% ([3]; 40 °C/75%RH, 14 days): 99.1%
Purity% ([3]; 40 °C/75%RH, Initial): 99.1%

COc1cccc(OC)c1S(=O)(=O)Nc1noc2cc(Cn3cccn3)c3c(c12)OCCC3 [Crystal form H, N-(5-((1H-pyrazol-1-yl)methyl)-3,4-dihydro-2H-chromeno[8,7-d]isoxazol-9-yl)-2,6-dimethoxybenzenesulfonamide]
0.0%RH-80.0%RH [1]: 19.91%
Crystal form [1]: No change
